Patent US20170081383A1, “MELANOCORTIN ANALOGS HAVING ENHANCED ACTIVITY AND TRANSPORT” (Tensive Controls Inc., priority 2012, published 2017)
Entries after “also recorded” stand apart in the source; their conditions may differ. Positions of bridges follow the written chain, without caps; N, C: chain ends. Non-standard residues stand in square brackets, D forms with d. Residues, ends and D or L forms follow the SMILES beside them. No end group written: not given here. β2Val = β2-Val (beta2-Val), beta-amino acid; d2Nal = N[C@H](Cc1ccc2ccccc2c1)C(=O)O; β3hV = CC(C)[C@H](N)CC(=O)O; β3hP = O=C(O)C[C@@H]1CCCN1; Nle = CCCC[C@H](N)C(=O)O

Legend:
[1] = tested on: urethane-anesthetized rats; assay: Cardiovascular activity of melanocortin peptides (MAP, heart rate, ECG); settings: for Duration / Peak Heart Rate Response (BPM) / Peak MAP Response (Δ mm Hg): n = 5; for cardiovascular and behavioral side effects (in words): rats
Experimental: These studies were performed in urethane-anesthetized rats, since anesthesia is required for six-lead ECG monitoring. […] Initial selection of doses was guided by FDA exploratory IND studies with a recommendation for at least a 100-fold excess of the human dose.

[2] = tested on: LPS-induced cachexia in rats; assay: Lipopolysaccharide (LPS)-induced cachexia assay; type: in vivo, rat; settings: for blood-brain barrier transport (concluded from peripheral vs ICV activity) / anti-cachectic activity after ICV (IVt) administration (in words): LPS model; for anti-cachectic activity after ICV (IVt) administration (in words): intracerebroventricular administration; for peripheral (IP) anti-cachexia activity, feeding (in words): peripheral / intraperitoneal administration after LPS
Experimental: The LPS model uses rats were maintained on a 12 h light/dark schedule with ad libitum access to food and water. Animals were handled daily for a minimum of three consecutive days to decrease non-specific handling stress. On the day of the experiment, individually housed animals received intraperitoneal injections of LPS dissolved in 0.5% low-endotoxin BSA, 0.9% saline or 0.5% BSA in 0.9% saline alone, and were returned to their home cage. The drug or control was administered (ICV, IP, or PO, depending on the type of study) 1-hour after LPS injection.
In the experiments described herein, a series of melanocortin receptor antagonist peptides were examined in a bacterial endotoxin inducing cachexia assay. For this assay, a rat is challenged with a single peripheral injection of lipopolysaccharide (LPS). LPS is a heat-stable lipo-polysaccharide, the major component of the outer membrane (capsule) of gram negative bacteria. In non-capsulated strains, it appears as a cell surface […]. LPS produces a strong immune response, including secretion of the proinflammatory cytokines Tumor Necrosis Factor α (TNFα) and interleukin-1 (IL-1). Proinflammatory cytokines are known factors that induce cachexia.
Rats are maintained on a 12-hour light/dark cycle. Animals are handled daily for a minimum of 5 consecutive days to acclimate them to the handling required for the experiment. […] On the day of the experiment, individually housed animals receive intraperitoneal (IP) injections of LPS dissolved in 0.5% low-endotoxin BSA, 0.9% saline or 0.5% BSA in 0.9% saline alone, and returned in their home cage. Melanocortin receptor antagonist peptides were administered (IP or by gavage, depending on the type of study) one hour after the LPS injection. The extent of cachexia is measured by the reduction in food intake, measured every two hours. The cachexia typically lasts only a single day. However, rats lose up to 5% of their body weight during a 12-hour light cycle, making up this loss plus food needed for normal growth during the 12-hour dark cycle. Thus, failure to eat appropriately during a single dark cycle is determinable from the animal's weight and any changes thereof.
A series of melanocortin receptor antagonist peptides were examined in a bacterial toxin inducing cachexia assay. In this assay, a rat was challenged with a single peripheral injection of lipopolysaccharide (LPS), a bacterial toxin that rapidly induces acute cachexia. The extent of cachexia was measured as a reduction in food intake, measured every two hours. The cachexia typically lasts only a single day.

[3] = tested on: Lewis sarcoma rat model; assay: Lewis sarcoma rat model of cancer cachexia; type: in vivo
Experimental: This sarcoma is an aggressive form of cancer that produces significant cachexia. Popp et al., Cancer 49(6): 1212-1220 (1982). In the protocol, “treatment” began 8-days after tumor implantation, with a significant decrease in food intake from baseline. Body composition was determined by NMR prior to tumor implantation, and on the final day of the experiment after tumor resection, by ECHO MRI (NMR). Tumor implantation produces cachexia on or about the 6th day. Melanocortin drug therapy or saline was begun after day 8 and continued through day 12.
Prior to tumor implantation, both groups (drug or saline) had similar food intake (˜14 g/day). See FIGS. 2A and B. After tumor implantation, in saline-treated/tumor bearing controls, food intake decreased 35% to 9 g/day by day 8. FIGS. 3A-F. However, treatment with TCMCB01 reversed anorexia to a food intake similar to the control state.

CCCC[C@H](NC(C)=O)C(=O)N[C@H]1CC(=O)NCCCC[C@@H](C(=O)O)NC(=O)[C@H](Cc2c[nH]c3ccccc23)NC(=O)[C@H](CCCN=C(N)N)NC(=O)[C@@H](Cc2ccccc2)NC(=O)[C@H](Cc2cnc[nH]2)NC1=O [PT-141, Ac-Nle-c[Asp-His-D-Phe-Arg-Trp-Lys]-COOH]
Duration ([1]; 250 nmol): 140 ± 53 min | Peak Heart Rate Response (BPM) ([1]; 250 nmol): 44 ± 6 BPM | Peak MAP Response (Δ mm Hg) ([1]; 250 nmol): 32 ± 6 mm Hg | lethality ([1]; 900 nmol/kg IV, FIG. 1C): lethal dose | MAP reached after dosing ([1]; 900 nmol/kg IV, baseline MAP 80 mmHg, then precipitously falling): 140 mmHg | heart rate course after dosing ([1]; 900 nmol/kg IV, baseline heart rate 312): progressively fell | ECG tracing (lead 2) finding ([1]; IV 600 nmol/kg, FIG. 1A-B): inverted P-wave

CCCC[C@H](NC(C)=O)C(=O)N[C@H]1CC(=O)NCCCC[C@@H](C(=O)N2CCC[C@@H]2C(=O)N[C@@H](C(N)=O)C(C)C)NC(=O)[C@H](Cc2c[nH]c3ccccc23)NC(=O)[C@H](CCCNC(=N)N)NC(=O)[C@@H](Cc2ccc3ccccc3c2)NC(=O)[C@@H]2CCCN2C1=O [TCMCB02, Ac-Nle-c[Asp-Pro-D-Nal(2′)-Arg-Trp-Lys]-D-Pro-D-Val-NH2] (Ac-[Nle]DP[d2Nal]RWK[dP][dV]-NH2; lactam 2-7 (inferred))
blood-brain barrier transport (concluded from peripheral vs ICV activity) [2]: only has blood-brain barrier transport | cardiovascular and behavioral side effects (in words) [1]: no cardiovascular or dose-limiting behavioral side effects

Ac-Nle-c[Asp-His-D-Nal(2′)-Arg-Trp-Lys]-D-Pro-D-Val-NH2 (Ac-[Nle]DH[d2Nal]RWK[dP][dV]-NH2; lactam 2-7; SMILES CCCC[C@H](NC(C)=O)C(=O)N[C@H]1CC(=O)NCCCC[C@@H](C(=O)N2CCC[C@@H]2C(=O)N[C@@H](C(N)=O)C(C)C)NC(=O)[C@H](Cc2c[nH]c3ccccc23)NC(=O)[C@H](CCCNC(=N)N)NC(=O)[C@@H](Cc2ccc3ccccc3c2)NC(=O)[C@H](Cc2c[nH]cn2)NC1=O) [TCMCB03]
blood-brain barrier transport (concluded from peripheral vs ICV activity) [2]: failed to cross the blood brain barrier; also recorded: less blood-brain barrier transport activity | anti-cachectic activity after ICV (IVt) administration (in words) [2]: enhanced anti-cachexia; also recorded: superior anti-cachexia activity following ICV administration | peripheral (IP) anti-cachexia activity, feeding (in words) [2]: did not possess as good peripheral

Ac-Nle-c[Asp-His-D-Nal(2′)-Arg-Trp-Lys]-NH2 [SHU9119]
Peak Heart Rate Response (BPM) ([1]; 250 nmol): 3 ± 14 BPM | Peak MAP Response (Δ mm Hg) ([1]; 250 nmol): 16 ± 5 mm Hg

Ac-Nle-c[Asp-Pro-D-Nal(2′)-Arg-Trp-Lys]-D-Thr-D-Pro-D-Thr (Ac-[Nle]DP[d2Nal]RWK[dT][dP][dT]; lactam 2-7) [TCMCB01]
reversal of cachexia-anorexia (food intake) ([3]; ICV, one time per day, 2 nmol, after day 8 through day 12): reversed the cachexia-anorexia of the tumor burden | dose producing the feeding effect relative to that used with previous synthetic melanocortin antagonists ([3]; Lewis model): one tenth | body weight after tumor implantation ([3]; drug treated group vs saline controls, FIG. 4): significantly greater than saline controls | tumor weight ([3]; equivalent in saline-treated and drug-treated group (p=0.2), FIG. 5): ~40 g | anti-cachectic response compared with AGRP and SHU9119 ([3]; food intake, Lewis sarcoma rats, FIG. 3): as potent as the natural melanocortin system inhibitor Agouti Related Protein (AGRP), and significantly more potent than SHU9119; also recorded: equivalent to AGRP | anti-cachectic effect greater than AGRP ([3]; related study (not shown), Lewis model): ~20% | lean body mass (NMR after tumor excision) ([3]; statistical significance only p=0.05, FIG. 6): increased lean body mass | blood-brain barrier transport (concluded from peripheral vs ICV activity) [2]: insufficient blood brain barrier-transport; also recorded: no blood-brain barrier transport | anti-cachectic activity compared to the parent compound, PG932 ([2]; Lewis sarcoma rat model and LPS model): enhanced anti-cachectic activity | anti-cachectic activity after ICV (IVt) administration (in words) [2]: only produced an anti-cachexia effect when given by IVt administration | peripheral (IP) anti-cachexia activity, feeding (in words) [2]: did not have peripheral activity | Duration ([1]; 600 nmol): 0 min | Peak Heart Rate Response (BPM) ([1]; 600 nmol): 0/0 BPM | Peak MAP Response (Δ mm Hg) ([1]; 600 nmol): 0/0 mm Hg | cardiovascular and behavioral side effects (in words) [1]: no cardiovascular or dose-limiting behavioral side effects; also recorded: little cardiovascular activity

Ac-Nle-c[Asp-Pro-D-Nal(2′)-Arg-Trp-Lys]-D-Val-D-Pro-OH (Ac-[Nle]DP[d2Nal]RWK[dV][dP]-OH; lactam 2-7) [TCMCB07A]
peripheral (IP) anti-cachexia activity, feeding (in words) [2]: equivalent stimulation of feeding

Ac-Nle-c[Asp-Pro-D-Nal(2′)-Arg-Trp-Lys]-β^2-Val-β^3-Pro-NH2 (Ac-[Nle]DP[d2Nal]RWK[β2Val][β3hP]-NH2; lactam 2-7) [TCMCB08]
blood-brain barrier transport (concluded from peripheral vs ICV activity) [2]: good blood-brain barrier transport | oral activity / gastrointestinal transport (in words) ([2]; gavage (intra-gastric) administration, LPS cachexia): not as much oral activity as TCMCB07; also recorded: no gastrointestinal transport | peripheral (IP) anti-cachexia activity, feeding (in words) [2]: has peripheral activity

Ac-Nle-c[Asp-Pro-D-Nal(2′)-Arg-Trp-Lys]-β^3-Pro-β^3-Pro-NH2 (Ac-[Nle]DP[d2Nal]RWK[β3hP][β3hP]-NH2; lactam 2-7; SMILES CCCC[C@H](NC(C)=O)C(=O)N[C@H]1CC(=O)NCCCC[C@@H](C(=O)N2CCC[C@H]2CC(=O)N2CCC[C@H]2CC(N)=O)NC(=O)[C@H](Cc2c[nH]c3ccccc23)NC(=O)[C@H](CCCNC(=N)N)NC(=O)[C@@H](Cc2ccc3ccccc3c2)NC(=O)[C@@H]2CCCN2C1=O) [TCMCB10]
blood-brain barrier transport (concluded from peripheral vs ICV activity) [2]: failure to cross the blood-brain barrier | anti-cachectic activity after ICV (IVt) administration (in words) [2]: maintaining direct inhibitory effects | peripheral (IP) anti-cachexia activity, feeding (in words) [2]: no peripheral activity

Ac-Nle-c[Asp-Pro-D-Nal(2′)-Arg-Trp-Lys]-β^3-Pro-β^3-Val-NH2 (Ac-[Nle]DP[d2Nal]RWK[β3hP][β3hV]-NH2; lactam 2-7) [TCMCB06]
food intake, 24 hours after LPS challenge ([2]; 0.2 mg/kg intraperitoneally, FIG. 8A): ate significantly less food than the other drug candidates | body weight (percent of pre-LPS baseline), 24 hours after LPS challenge ([2]; 0.2 mg/kg intraperitoneally, FIG. 8B): no weight gain | molar activity relative to TCMCB02 ([2]; ICV administration, LPS-induced cachexia): 10 fold | anti-cachectic activity after ICV (IVt) administration (in words) [2]: molar activity equivalent to TCMCB02 | peripheral (IP) anti-cachexia activity, feeding (in words) [2]: only TCMCB05 (β^3-Pro-β^2-Val) had IP anti-cachexia activity; also recorded: only TCMCB05 had peripheral anti-cachexia activity

Ac-Nle-c[Asp-Pro-D-Nal(2′)-Arg-Trp-Lys]-β^3-Val-β^3-Pro-NH2 (Ac-[Nle]DP[d2Nal]RWK[β3hV][β3hP]-NH2; lactam 2-7) [TCMCB09]
peripheral (IP) anti-cachexia activity, feeding (in words) [2]: inactive peripherally

Ac-Nle-c[D-Asp-Pro-D-Nal(2′)-Arg-Trp-D-Lys]-D-Pro-D-Val-NH2 (Ac-[Nle][dD]P[d2Nal]RW[dK][dP][dV]-NH2; lactam 2-7) [TCMCB04]
blood-brain barrier transport (concluded from peripheral vs ICV activity) [2]: eliminated blood brain barrier transport; also recorded: no transport across the blood-brain barrier | anti-cachectic activity after ICV (IVt) administration (in words) [2]: superior anti-cachectic activity compared to the parent compound | peripheral (IP) anti-cachexia activity, feeding (in words) [2]: No difference was observed between the peptide and saline

Ac-Ser-Tyr-Nle-Glu-His-D-Phe-Arg-Trp-Gly-Lys-Pro-Val-NH2 [MT-I]
Duration ([1]; 250 nmol): 0 min | Peak Heart Rate Response (BPM) ([1]; 250 nmol): 0/0 BPM | Peak MAP Response (Δ mm Hg) ([1]; 250 nmol): 0/0 mm Hg
